# Reference: patent US7202280B2, “Methods for the treatment and prevention of pancreatitis and for induction of liver regeneration” (priority 2002, dated 2007)
# Several values for one entry are separate records, joined by “and”; a condition that tells them apart may be missing. Equal entries are not always repeated.
# Legend:
# Format in all cases: in vivo, rat
# [1] = tested on: syngenic and transgenic rats; experiment: Pancreatic SSAT activity and polyamine pools after zinc and methylspermidine
# Protocol: FIGS. 1a-1d. Pancreatic polyamine pools in syngenic and transgenic rats after zinc and methylspermidine. […] Three to five animals in each group. Me-spd, methylspermidine. The production of transgenic Wistar rats (UKUR30) and mice (UKU181) harboring metallothionein-SSAT fusion gene (Suppola, […]., Porter, C. W., and Jänne, J. (1999) Biochem. […] (2000) Proc. Natl. Acad. Sci. U.S.A. 97, 8290-8295; Lukkarinen, […]., and Alhonen, L. (1997) Stroke 28, 639-645). Partial hepatectomy was carried out according to the original method of Higgins and Anderson (Higgins, G. H., and Anderson, R. M. (1931) Arch. Pathol. 12, 186-202). Treatments before partial hepatectomy and the determination of DNA synthesis were carried out as in ([…]., Suppola, […]., and […]. Biol. Chem. 277, 39867-39872). Transgenic 10 weeks old male rats were injected twice with MDL72527 (50 mg/kg i.p.) at 16-h interval to inactivate PAO according to (Bolkenius, F. N., Bey, P., and Seiler, N. (1985) Biochim. Biophys. […] An aliquot of the homogenates was used for the polyamine assays. The homogenates were centrifuged (at 13 000×g, for 30 min, at 4° C.) and the supernatants were used for the enzyme activity assays. The Institutional Animal Care and Use Committee of the University of Kuopio and by the Provincial Government approved animal experiments. […] Merck (Darmstadt, Germany). […] The changes in pancreatic polyamine pools in response to zinc and methylspermidine are depicted in FIG. 1. […] The various treatments only marginally altered pancreatic putrescine pools (FIG. 1a). […] FIG. 1d depicts the accumulation of the analogue in the pancreas after a single dose or two doses.
# [2] = tested on: rats with arginine-induced pancreatitis; experiment: Arginine-induced pancreatitis
# Protocol: FIG. 6 Plasma α-amylase activity in rats with arginine-induced pancreatitis after methylspermidine. The animals received […]-500 mg/kg) 24 h before sacrifice with or without methylspermidine (50 mg/kg) either as a single dose 4 h before arginine or as two doses 20 h and 4 h before arginine. Three to five animals in each group. Arg, Arginine. Me-Spd, methylspermidine. Administration of large quantities of arginine is known to cause acute, necrotizing pancreatitis in rats.
# [3] = tested on: SSAT transgenic rats (UKUR30); experiment: Treatment of zinc induced acute pancreatitis in SSAT transgenic rats: survival and severity (histology, plasma amylase, mortality); parameters: key to Edema: 0 (absent); 1 (minimal); 4 (maximal); conditions: for Edema / Necr. / P-amyl: single animals
# Protocol: Formalin-fixed pancreatic specimens were embedded in paraffin, cut into 5-μm-thick slices, and stained with hematoxylin/eosin. The stained sections were coded and scored by the participating gastroenterologist (K.-H. H.) according to the method of Niederau et al. (Niederau, C., Liddle, R. A., Ferrell, L. D., and Grendell, J. H. (1986) J. Clin. Invest. 78, 1056–1063).
# Transgenic UKUR30 female rats (weighting about 200 g) were used for the experiments. Pancreatitis was initiated with zinc 10 mg/kg treatment. Experiments were separated in five different parts (Exp. 1–5). Animals treated with α-MeSPD received 50 mg/kg i.p at the indicated time point(s). The pooled data from all of the experiment is shown in tables 4 A/B/C/D. First histological signs of pancreatic failure were evident within 6 h after the zinc. Pancreatic failure steadily increases until 24 hours when the first animals died. Within 48 hours mortality was almost 70% in control zinc treated rats.
# Tables 4 A/B/C/D present the natural course of zinc induced pancreatitis. Histological scoring along with plasma amylase activity is shown as a measure of severity of pancreatitis. Tissue zinc and polyamine levels and SSAT activity were determined to verify the response of each animal to the treatment. No other data than the number of death animals is shown from deceased animals. Transgenic UKUR30 female rats weighting about 200 grams were used for the experiment. Zinc was injected i.p. 10 mg/kg to initiate acute pancreatitis. Animals treated with MeSpd received one 50 mg/kg dosage i.p. at the indicated time point(s). At indicated time points live animals were sacrificed and pancreas was subjected to further analysis. […] Values for polyamines are expressed as pmoles/mg/wet weight. SSAT pmoles/10 min/mg wet weight.
# [4] = Zn 24 h, MeSpd 50 mg/kg i.p. at 3 h/8 h
# [5] = Zn 24 h, MeSpd 50 mg/kg i.p. at 6 h/12 h
# [6] = Zn 24 h, MeSpd 50 mg/kg i.p. at 12 h
# [7] = Zn 48 h, MeSpd 50 mg/kg i.p. at 3 h/8 h
# [8] = Zn 48 h, MeSpd 50 mg/kg i.p. at 4 h/24 h
# [9] = Zn 48 h, MeSpd 50 mg/kg i.p. at 12 h/24 h
smiles,measurement,setting,value
"CC(N)CCNCCCCN (stereo not drawn) [α-methylspermidine, 1-methylspermidine]",accumulation of the analogue in the pancreas,[1]; single dose or two doses of 50 mg/kg,effectively accumulated in the pancreas apparently with no further metabolism
same,"SSAT activity, Pancreas","[1]; syngenic rats, zinc 10 mg/kg with methylspermidine 50 mg/kg",did not influence SSAT activity
same,"SSAT activity, Pancreas","[1]; transgenic rats, analogue with zinc vs zinc alone",only slightly increased SSAT activity
same,Pancreatic spermidine pool,"[1]; transgenic rats, zinc 10 mg/kg",little effect on zinc-induced depletion of spermidine
same,plasma amylase,"[2]; arginine 250–500 mg/kg, single dose 50 mg/kg",significantly reduced the pancreatitis-associated increase in plasma amylase
same,plasma amylase levels,"[2]; arginine 250–500 mg/kg, two repeated doses",fully normalized
same,histopathological changes in the pancreas,[2]; arginine-induced pancreatitis,prevented the histopathological changes
same,Edema,[3]; [4],0 (2×) and 2 (2×)
same,Necr.,[3]; [4],"0 (0, 0–5%) (2×) and 3 (3, 35–50%) and 4 (4, >50%)"
same,P-amyl,[3]; [4],2743 U/l and 20380 U/l and 11420 U/l and 2801 U/l
same,Edema,[3]; [5],0 (3×) and 1 (2×) and 2 (2×) and 3 and 4
same,Necr.,[3]; [5],"0 (0, 0–5%) (4×) and 4 (4, >50%) (4×) and 2 (2, 15–35%)"
same,P-amyl,[3]; [5],2686 U/l and 2153 U/l and 2572 U/l and 30970 U/l and 42250 U/l and 30860 U/l and 28400 U/l and 5110 U/l and 25050 U/l
same,Edema,[3]; [6],1 and 2 (2×) and 3
same,Necr.,[3]; [6],"0 (0, 0–5%) and 4 (4, >50%) (2×) and 3 (3, 35–50%)"
same,P-amyl,[3]; [6],3048 U/l and 17170 U/l and 31310 U/l and 18960 U/l
same,Mortality %,"[3]; Zn 24 h, MeSpd treatment yes",0%
same,Number of death animals,"[3]; Zn 24 h, MeSpd treatment yes, 17 animals",0
same,Edema,[3]; [7],3 (2×) and 2
same,Necr.,[3]; [7],"4 (4, >50%)"
same,P-amyl,[3]; [7],5867 U/l and 5117 U/l and 29880 U/l
same,Edema,[3]; [8],0 (3×) and 1 and 3
same,Necr.,[3]; [8],"0 (0, 0–5%) (4×) and 4 (4, >50%)"
same,P-amyl,[3]; [8],1924 U/l and 2740 U/l and 2908 U/l and 2591 U/l and 3943 U/l
same,Edema,[3]; [9],3 (2×) and 0 and 2
same,Necr.,[3]; [9],"4 (4, >50%) (3×) and 0 (0, 0–5%)"
same,P-amyl,[3]; [9],86840 U/l and 2693 U/l and 36470 U/l and 3382 U/l
same,Mortality %,"[3]; Zn 48 h, MeSpd treatment yes",8%
